# Source: publication PMC5224920, “Assessing the mechanism and therapeutic potential of modulators of the human Mediator complex-associated protein kinases” (eLife, 2016)
# System: 12 single or co-culture in vitro tissue models of primary cells
# Assay: Culture/co-culture cell model panel, extracellular biomarkers (DiscoveRx); for CCL2/MCP-1: reference of the scale not given here; for CD141/Thrombomodulin: reference of the scale not given here; for CD142/Tissue Factor: reference of the scale not given here; for CXCL8/IL-8: reference of the scale not given here; for CXCL9/MIG: reference of the scale not given here; for M-CSF: reference of the scale not given here; for Proliferation: reference of the scale not given here; for SRB: reference of the scale not given here
# Assay type: cell-based, human
compound,measurement,setting,value
Cn1ncc2cc(-c3cnc(N)c(Cl)c3N3CCC4(CCNC4=O)CC3)ccc21 [CMPD 3],CCL2/MCP-1,"3C, 1.00E0 nM",0.030
same,CD54/ICAM-1,"3C, 1.00E0 nM",-0.007
same,CD87/uPAR,"3C, 1.00E0 nM",-0.138
same,CD106/VCAM-1,"3C, 1.00E0 nM",0.033
same,CD141/Thrombomodulin,"3C, 1.00E0 nM",0.044
same,CD142/Tissue Factor,"3C, 1.00E0 nM",0.040
same,CXCL8/IL-8,"3C, 1.00E0 nM",0.00749
same,CXCL9/MIG,"3C, 1.00E0 nM",0.008
same,HLA-DR,"3C, 1.00E0 nM",-0.007
same,Proliferation,"3C, 1.00E0 nM",-0.065
same,SRB,"3C, 1.00E0 nM",-0.049
same,CCL2/MCP-1,"3C, 1.00E1 nM",-0.022
same,CD54/ICAM-1,"3C, 1.00E1 nM",-0.036
same,CD87/uPAR,"3C, 1.00E1 nM",-0.247
same,CD106/VCAM-1,"3C, 1.00E1 nM",0.039
same,CD141/Thrombomodulin,"3C, 1.00E1 nM",0.072
same,CD142/Tissue Factor,"3C, 1.00E1 nM",0.133
same,CXCL8/IL-8,"3C, 1.00E1 nM",-0.095
same,CXCL9/MIG,"3C, 1.00E1 nM",-0.00373
same,HLA-DR,"3C, 1.00E1 nM",-0.076
same,Proliferation,"3C, 1.00E1 nM",-0.054
same,SRB,"3C, 1.00E1 nM",-0.076
same,CCL2/MCP-1,"3C, 1.00E2 nM",-0.124
same,CD54/ICAM-1,"3C, 1.00E2 nM",-0.048
same,CD87/uPAR,"3C, 1.00E2 nM",-0.349
same,CD106/VCAM-1,"3C, 1.00E2 nM",0.034
same,CD141/Thrombomodulin,"3C, 1.00E2 nM",0.056
same,CD142/Tissue Factor,"3C, 1.00E2 nM",0.139
same,CXCL8/IL-8,"3C, 1.00E2 nM",-0.180
same,CXCL9/MIG,"3C, 1.00E2 nM",-0.007
same,HLA-DR,"3C, 1.00E2 nM",-0.144
same,Proliferation,"3C, 1.00E2 nM",-0.088
same,SRB,"3C, 1.00E2 nM",-0.094
same,CCL2/MCP-1,"3C, 1.00E3 nM",-0.168
same,CD54/ICAM-1,"3C, 1.00E3 nM",-0.045
same,CD87/uPAR,"3C, 1.00E3 nM",-0.370
same,CD106/VCAM-1,"3C, 1.00E3 nM",0.037
same,CD141/Thrombomodulin,"3C, 1.00E3 nM",0.050
same,CD142/Tissue Factor,"3C, 1.00E3 nM",0.150
same,CXCL8/IL-8,"3C, 1.00E3 nM",-0.301
same,CXCL9/MIG,"3C, 1.00E3 nM",-0.026
same,HLA-DR,"3C, 1.00E3 nM",-0.148
same,Proliferation,"3C, 1.00E3 nM",-0.102
same,SRB,"3C, 1.00E3 nM",-0.099
same,CCL2/MCP-1,"3C, 1.00E4 nM",-0.253
same,CD54/ICAM-1,"3C, 1.00E4 nM",-0.033
same,CD87/uPAR,"3C, 1.00E4 nM",-0.407
same,CD106/VCAM-1,"3C, 1.00E4 nM",0.036
same,CD141/Thrombomodulin,"3C, 1.00E4 nM",0.036
same,CD142/Tissue Factor,"3C, 1.00E4 nM",0.224
same,CXCL8/IL-8,"3C, 1.00E4 nM",-0.302
same,CXCL9/MIG,"3C, 1.00E4 nM",-0.020
same,HLA-DR,"3C, 1.00E4 nM",-0.278
same,Proliferation,"3C, 1.00E4 nM",-0.404
same,SRB,"3C, 1.00E4 nM",-0.222
same,CCL2/MCP-1,"/HDF3CT, 1.00E0 nM",-0.010
same,CD54/ICAM-1,"/HDF3CT, 1.00E0 nM",-0.008
same,CD106/VCAM-1,"/HDF3CT, 1.00E0 nM",0.026
same,CXCL8/IL-8,"/HDF3CT, 1.00E0 nM",-0.039
same,CXCL9/MIG,"/HDF3CT, 1.00E0 nM",0.020
same,CXCL10/IP-10,"/HDF3CT, 1.00E0 nM",0.003
same,Collagen I,"/HDF3CT, 1.00E0 nM",0.036
same,M-CSF,"/HDF3CT, 1.00E0 nM",0.008
same,MMP-1,"/HDF3CT, 1.00E0 nM",0.097
same,PAI-I,"/HDF3CT, 1.00E0 nM",0.039
same,SRB,"/HDF3CT, 1.00E0 nM",0.007
same,TIMP-2,"/HDF3CT, 1.00E0 nM",0.070
same,CCL2/MCP-1,"/HDF3CT, 1.00E1 nM",-0.048
same,CD54/ICAM-1,"/HDF3CT, 1.00E1 nM",-0.062
same,CD106/VCAM-1,"/HDF3CT, 1.00E1 nM",0.0026
same,CXCL8/IL-8,"/HDF3CT, 1.00E1 nM",-0.028
same,CXCL9/MIG,"/HDF3CT, 1.00E1 nM",0.010
same,CXCL10/IP-10,"/HDF3CT, 1.00E1 nM",0.017
same,Collagen I,"/HDF3CT, 1.00E1 nM",0.021
same,M-CSF,"/HDF3CT, 1.00E1 nM",-0.050
same,MMP-1,"/HDF3CT, 1.00E1 nM",0.095
same,PAI-I,"/HDF3CT, 1.00E1 nM",-0.027
same,SRB,"/HDF3CT, 1.00E1 nM",-0.007
same,TIMP-2,"/HDF3CT, 1.00E1 nM",0.045
same,CCL2/MCP-1,"/HDF3CT, 1.00E2 nM",-0.069
same,CD54/ICAM-1,"/HDF3CT, 1.00E2 nM",-0.067
same,CD106/VCAM-1,"/HDF3CT, 1.00E2 nM",0.015
same,CXCL8/IL-8,"/HDF3CT, 1.00E2 nM",-0.099
same,CXCL9/MIG,"/HDF3CT, 1.00E2 nM",-0.022
same,CXCL10/IP-10,"/HDF3CT, 1.00E2 nM",0.012
same,Collagen I,"/HDF3CT, 1.00E2 nM",0.00367
same,M-CSF,"/HDF3CT, 1.00E2 nM",-0.024
same,MMP-1,"/HDF3CT, 1.00E2 nM",0.086
same,PAI-I,"/HDF3CT, 1.00E2 nM",-0.074
same,SRB,"/HDF3CT, 1.00E2 nM",-0.023
same,TIMP-2,"/HDF3CT, 1.00E2 nM",0.070
same,CCL2/MCP-1,"/HDF3CT, 1.00E3 nM",-0.111
same,CD54/ICAM-1,"/HDF3CT, 1.00E3 nM",-0.061
same,CD106/VCAM-1,"/HDF3CT, 1.00E3 nM",0.021
same,CXCL8/IL-8,"/HDF3CT, 1.00E3 nM",-0.189
same,CXCL9/MIG,"/HDF3CT, 1.00E3 nM",-0.040
same,CXCL10/IP-10,"/HDF3CT, 1.00E3 nM",0.00333
